Results published in ChEMBL document CHEMBL3137667, “[Drug-induced liver injury; fourteenth updated edition of the bibliographic database of liver injuries and related drugs]” (Gastroenterol Clin Biol, 2004).

Assays:
[1] = human
[2] = human; remark: listed apart in the source
[3] = human; remark: listed apart in the source
[4] = human, serum, 4383 h
[5] = human; remark: listed apart in the source
[6] = human, serum
[7] = Highest frequency of moderate liver toxicity observed during clinical trials, expressed as a percentage. [column '% BIOL' in source]; conditions: human
[8] = human; remark: listed apart in the source
[9] = human, serum; remark: listed apart in the source
[10] = human; remark: listed apart in the source
[11] = human; remark: listed apart in the source
[12] = Highest frequency of acute liver toxicity observed during clinical trials, expressed as a percentage. [column '% AIGUE' in source]; conditions: human
[13] = human; remark: listed apart in the source
[14] = human; remark: listed apart in the source
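For Hepatotoxicity (association with vascular disease) in this document: count of indexed literature references reporting vascular liver injury in humans, e.g. peliosis hepatitis, hepatic veno-occlusive disease or Budd-Chiari syndrome.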
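For Hepatotoxicity (benign tumour) in this document: value is a count of indexed literature references citing a benign tumour confirmed by histopathology.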
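For Hepatotoxicity (choleostasis) in this document: human cholestatic liver injury, shown by histopathology or by peak ALT or AST elevation over alkaline phosphatase ratio below 2, value counts indexed literature reports.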
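For Hepatotoxicity (chronic liver disease) in this document: chronic liver injury confirmed by histopathology or persistently raised serum aminotransferase activity beyond 6 months, value given as the count of indexed literature references.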
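For Hepatotoxicity (cirrhosis) in this document: value is a count of indexed literature references reporting cirrhosis confirmed by histopathology.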
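For Hepatotoxicity (cytolytic) in this document: human cytolytic liver injury, shown by histopathology or by a ratio above 5 of peak ALT or AST elevation to alkaline phosphatase elevation, value counts indexed references.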
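For Hepatotoxicity (granulomatous hepatitis) in this document: value is a count of indexed literature references reporting granulomatous liver disease confirmed by histopathology.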
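For Hepatotoxicity (malignant tumour) in this document: malignant tumour confirmed by histopathology, value gives the count of indexed literature references reporting it.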
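For Hepatotoxicity (severe hepatitis) in this document: human clinical data: severe hepatitis, meaning potentially life-threatening liver failure or clinically observed cases, the value counts how many indexed literature references report it.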
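For Hepatotoxicity (steatosis) in this document: steatosis confirmed by histopathology, value is the count of indexed references.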

Structure (SMILES) | Hepatotoxicity (choleostasis) [1] | Hepatotoxicity (cirrhosis) [2] | Hepatotoxicity (granulomatous hepatitis) [3] | Hepatotoxicity (chronic liver disease) [4] | Hepatotoxicity (association with vascular disease) [5] | Hepatotoxicity (moderate) [6] | Hepatotoxicity (moderate) [7] | Hepatotoxicity (steatosis) [8] | Hepatotoxicity (acute) [9] | Hepatotoxicity (benign tumour) [10] | Hepatotoxicity (cytolytic) [11] | Hepatotoxicity (acute) [12] | Hepatotoxicity (malignant tumour) [13] | Hepatotoxicity (severe hepatitis) [14] | Hepatotoxicity (choleostasis) ([1]; Liver) | Hepatotoxicity (granulomatous hepatitis) ([3]; Liver) | Hepatotoxicity (moderate) ([7]; Liver) | Hepatotoxicity (cytolytic) ([11]; Liver) | Hepatotoxicity (acute) ([12]; Liver) | Hepatotoxicity (severe hepatitis) ([14]; Liver)
C[C@@H]1CN(c2c(F)c(N)c3c(=O)c(C(=O)O)cn(C4CC4)c3c2F)C[C@H](C)N1 [SPARFLOXACIN] | 0 | 0 | 0 | 0 | 0 | 29 | 20% | 0 | 0 | 0 | 0 | 0% | 0 | 0 | – | – | – | – | – | –
Cc1nc(NS(=O)(=O)c2ccc(N)cc2)oc1C [SULFAMOXOLE] | 0 | 0 | 0 | 0 | 0 | 0 | 0% | 0 | 1 | 0 | 0 | 0% | 0 | 0 | – | – | – | – | – | –
Nc1ccc(S(=O)(=O)Nc2nccs2)cc1 [SULFATHIAZOLE] | – | 0 | – | 0 | 0 | 1 | – | 0 | 0 | 0 | – | – | 0 | – | 0 | 0 | 0% | 0 | 0% | 0
Cc1cc(NS(=O)(=O)c2ccc(N)cc2)nc(C)n1 [SULFISOMIDINE] | 0 | 0 | 0 | 0 | 0 | 0 | 0% | 0 | 1 | 0 | 0 | 0% | 0 | 0 | – | – | – | – | – | –
CC1(C)S[C@@H]2[C@H](NC(=O)[C@H](N)c3ccccc3)C(=O)N2[C@H]1C(=O)OCOC(=O)[C@@H]1N2C(=O)C[C@H]2S(=O)(=O)C1(C)C [SULTAMICILLIN] | 1 | 0 | 0 | 0 | 0 | 61 | 43% | 0 | 1 | 0 | 0 | 0.2% | 0 | 0 | – | – | – | – | – | –
Cc1nc(C)c2c(n1)N(Cc1ccc(-c3ccccc3-c3nnn[nH]3)cc1)C(=O)CC2 [TASOSARTAN] | 0 | 0 | 0 | 0 | 0 | 2 | 1.9% | 0 | 0 | 0 | 0 | 0% | 0 | 0 | – | – | – | – | – | –
CC[C@H]1OC(=O)[C@H](C)C(=O)[C@H](C)[C@@H](O[C@@H]2O[C@H](C)C[C@H](N(C)C)[C@H]2O)[C@](C)(OC)C[C@@H](C)C(=O)[C@H](C)[C@H]2N(CCCCn3cnc(-c4cccnc4)c3)C(=O)O[C@]12C [TELITHROMYCIN] | – | 0 | – | 0 | 0 | 4 | – | 0 | 0 | 0 | – | – | 0 | – | 0 | 0 | 1.8% | 0 | 0% | 0
CC1CN(c2cc3c(cc2F)c(=O)c(C(=O)O)cn3-c2ccc(F)cc2F)CCN1 (centres undefined) [TEMAFLOXACIN] | 0 | 0 | 0 | 0 | 0 | 33 | 44.4% | 0 | 0 | 0 | 0 | 0% | 0 | 0 | – | – | – | – | – | –
Cn1nnc2c(C(N)=O)ncn2c1=O [TEMOZOLOMIDE] | 0 | 0 | 0 | 0 | 0 | 1 | 47.5% | 0 | 1 | 0 | 1 | 3% | 0 | 0 | – | – | – | – | – | –
NC(=O)N1C(=O)/C(=C(\O)c2cccs2)c2cc(Cl)ccc21 [TENIDAP] | 1 | 0 | 0 | 0 | 0 | 3 | 18.8% | 0 | 2 | 0 | 1 | 0.8% | 0 | 0 | – | – | – | – | – | –
COc1ccc(-n2nc(CCC(=O)N(C)O)cc2-c2ccc(Cl)cc2)cc1 [TEPOXALIN] | 0 | 0 | 0 | 0 | 0 | 1 | 2.5% | 0 | 0 | 0 | 0 | 0% | 0 | 0 | – | – | – | – | – | –
